Results on five molecules are retold here after US5643947A, “ω-amino-α-phenylalkanonitrile derivatives” (G. D. Searle & Co., priority 1995, dated 1997).

T2 sequence (P14842 whole entry): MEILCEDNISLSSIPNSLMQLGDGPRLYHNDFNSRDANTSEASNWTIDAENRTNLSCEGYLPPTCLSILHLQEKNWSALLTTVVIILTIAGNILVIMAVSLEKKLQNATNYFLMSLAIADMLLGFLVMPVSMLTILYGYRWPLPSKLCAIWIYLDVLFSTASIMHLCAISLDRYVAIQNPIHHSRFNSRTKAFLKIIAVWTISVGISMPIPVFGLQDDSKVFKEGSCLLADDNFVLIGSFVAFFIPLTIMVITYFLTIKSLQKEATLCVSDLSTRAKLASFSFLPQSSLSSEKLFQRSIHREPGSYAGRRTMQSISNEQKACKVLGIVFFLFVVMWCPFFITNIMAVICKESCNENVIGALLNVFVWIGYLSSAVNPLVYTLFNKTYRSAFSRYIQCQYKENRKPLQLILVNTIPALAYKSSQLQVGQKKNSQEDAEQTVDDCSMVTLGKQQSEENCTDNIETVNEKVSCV

In the first series the target is T1, slow Ca^2+ channel binding sites (Cavia porcellus, UniProt O35505).
T1 construct: forebrain; from tissue; host or cells: guinea-pig forebrain
T1 sequence (O35505 whole entry): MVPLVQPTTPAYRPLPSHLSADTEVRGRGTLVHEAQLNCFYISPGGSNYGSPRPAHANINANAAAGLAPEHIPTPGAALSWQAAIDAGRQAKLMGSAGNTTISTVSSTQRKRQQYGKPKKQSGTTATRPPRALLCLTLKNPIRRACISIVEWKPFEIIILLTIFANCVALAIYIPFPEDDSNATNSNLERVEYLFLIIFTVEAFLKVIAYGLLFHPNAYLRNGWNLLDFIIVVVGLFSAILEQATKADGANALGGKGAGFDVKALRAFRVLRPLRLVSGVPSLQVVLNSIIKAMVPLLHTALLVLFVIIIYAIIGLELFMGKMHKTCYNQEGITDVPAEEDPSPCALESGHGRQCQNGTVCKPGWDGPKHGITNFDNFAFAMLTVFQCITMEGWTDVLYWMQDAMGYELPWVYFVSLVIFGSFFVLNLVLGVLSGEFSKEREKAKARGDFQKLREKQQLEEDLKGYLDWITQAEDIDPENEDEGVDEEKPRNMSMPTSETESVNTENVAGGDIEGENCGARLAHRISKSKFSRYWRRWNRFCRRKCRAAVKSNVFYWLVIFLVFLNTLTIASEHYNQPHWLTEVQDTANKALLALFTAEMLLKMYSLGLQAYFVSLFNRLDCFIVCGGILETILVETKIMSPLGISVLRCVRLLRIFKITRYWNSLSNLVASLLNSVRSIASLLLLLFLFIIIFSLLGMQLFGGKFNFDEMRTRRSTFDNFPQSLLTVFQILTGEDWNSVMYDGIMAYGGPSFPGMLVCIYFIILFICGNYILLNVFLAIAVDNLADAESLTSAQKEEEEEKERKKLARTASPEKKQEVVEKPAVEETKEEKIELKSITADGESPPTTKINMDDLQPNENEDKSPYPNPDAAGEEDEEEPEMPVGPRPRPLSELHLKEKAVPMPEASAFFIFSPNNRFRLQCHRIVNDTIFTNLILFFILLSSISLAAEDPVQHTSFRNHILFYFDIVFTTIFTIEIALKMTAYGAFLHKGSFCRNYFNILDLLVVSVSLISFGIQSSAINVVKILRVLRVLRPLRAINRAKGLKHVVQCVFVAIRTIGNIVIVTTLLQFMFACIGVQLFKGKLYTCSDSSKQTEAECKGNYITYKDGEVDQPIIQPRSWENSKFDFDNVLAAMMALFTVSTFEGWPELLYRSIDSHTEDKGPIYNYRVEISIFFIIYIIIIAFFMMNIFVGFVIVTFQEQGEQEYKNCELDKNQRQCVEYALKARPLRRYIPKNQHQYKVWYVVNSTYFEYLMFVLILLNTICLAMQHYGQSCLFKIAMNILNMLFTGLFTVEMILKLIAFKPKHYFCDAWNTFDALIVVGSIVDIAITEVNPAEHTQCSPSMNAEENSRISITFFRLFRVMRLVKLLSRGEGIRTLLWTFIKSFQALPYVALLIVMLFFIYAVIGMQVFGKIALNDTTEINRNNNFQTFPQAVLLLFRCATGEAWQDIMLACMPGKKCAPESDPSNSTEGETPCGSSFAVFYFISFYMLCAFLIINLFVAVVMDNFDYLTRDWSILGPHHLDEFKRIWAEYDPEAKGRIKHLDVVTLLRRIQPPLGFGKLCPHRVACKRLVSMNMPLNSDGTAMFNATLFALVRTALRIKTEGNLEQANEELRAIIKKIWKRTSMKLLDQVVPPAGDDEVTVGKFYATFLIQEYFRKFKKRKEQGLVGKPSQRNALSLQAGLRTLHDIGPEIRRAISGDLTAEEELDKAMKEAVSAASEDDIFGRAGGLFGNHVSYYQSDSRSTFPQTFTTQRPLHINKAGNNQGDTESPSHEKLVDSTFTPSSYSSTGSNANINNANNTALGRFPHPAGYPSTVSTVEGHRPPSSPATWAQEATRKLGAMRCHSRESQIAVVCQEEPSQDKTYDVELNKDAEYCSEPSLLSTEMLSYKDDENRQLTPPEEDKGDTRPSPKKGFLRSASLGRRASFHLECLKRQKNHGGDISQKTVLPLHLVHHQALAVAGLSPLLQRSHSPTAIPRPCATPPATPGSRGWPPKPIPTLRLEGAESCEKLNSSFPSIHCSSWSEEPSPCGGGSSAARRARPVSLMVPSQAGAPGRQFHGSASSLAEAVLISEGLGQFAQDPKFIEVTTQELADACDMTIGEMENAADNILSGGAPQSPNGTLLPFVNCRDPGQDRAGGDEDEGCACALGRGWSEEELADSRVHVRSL
The series is described as follows: Ca2+ receptor binding, 3H-nitrendipine competition. On the set-up: species or system guinea-pig.
Details: not given
As for the experimental part: (§1) Receptor binding experiments were conducted under the experimental conditions described in Table III. ^3 H-nitrendipine is the radioligand of choice to determine, after competition at different concentrations, the affinity of compounds of the invention, for the slow Ca^2+ channel binding sites. […] After this in vitro biochemical testing, the compounds of the invention were tested for their CA^2+ antagonist properties on isolated organs. The method used was updated from M Spedding (Nauyn-Schmiedeberg's Arch. Pharmacol., 318, 234-240, 1982) and can be summarized as follows: Aorta rings from male rats were prepared and maintained in oxygenated Krebs solution at 37° C. The contractions were induced by 40 mM K+ in the absence or in the presence of the test compound. Each test compound was tested at least twice. […] The phasic and tonic parts of each response elicited by K+ were considered separately and were expressed in % of their corresponding controls. The IC50 values (from pIC50) were estimated by plotting the % response against the log of the concentrations.
(§2) Methodological Data for In Vitro Binding Assay of Various Receptors
(§3) KD values (Dissociation Constant) were determined by Scatchard analysis. Ki values (Inhibition Constant) were calculated according to the Cheng and Prusoff equation, using IC50 values: [formula]
The molecule `CCOC(=O)C1=C(C)NC(C)=C(C(=O)OC)C1c1cccc([N+](=O)[O-])c1` (stereo not drawn) [nitrendipine, reference compound] yielded an equilibrium dissociation constant (Kd) of 0.2 nM.

The series is the same for the next values; noted with them: 3H-nitrendipine competition; in words.
Consider `CCCCCCCCN(C)CCCC(C#N)(c1ccc(OC)c(OC)c1)C(C)C` (stereo not drawn) [Compound #1, 5-[(n-octyl)methylamino]-2-(3,4-dimethoxyphenyl) -2-isopropyl-valeronitrile], for which the “competition curve at slow Ca^2+ channel binding sites” value (“competition curve” for short) was “does not reach the non-specific base-line”.

On to `COc1ccc(C(C#N)(CCCN(C)CCCCc2ccccc2)C(C)C)cc1OC` (stereo not drawn) [Compound #2, 5-[(4-phenylbutyl)methylamino]-2-(3,4-dimethoxyphenyl)-2-isopropylvaleronitrile], for which the “competition curve” value is on record as “does not reach the non-specific base-line”.

In the case of `COc1ccc(C(C#N)(CCCN(C)CCCCCc2ccccc2)C(C)C)cc1OC` (stereo not drawn) [compound 3, 5-[5-(phenylpentyl)methylamino]-2-(3,4-dimethoxyphenyl)-2-isopropylvaleronitrile], the “competition curve” value was “reaching the non-specific level”.

In the case of `COc1ccc(C(C#N)(CCCN(C)CCCc2ccccc2)C(C)C)cc1OC` (stereo not drawn) [compound 4], the “competition curve” value was “does not reach the non-specific base-line”.

The series is the same for the next values; noted with them: guinea-pig forebrain, 3H-nitrendipine 0.2 nM, pH 7.4, 25 °C, 90 min; read-out: CA2^+ BINDING pKi (converted).
As for `COc1ccc(C(C#N)(CCCN(C)CCCCCc2ccccc2)C(C)C)cc1OC` (stereo not drawn) [compound 3, 5-[5-(phenylpentyl)methylamino]-2-(3,4-dimethoxyphenyl)-2-isopropylvaleronitrile], the Ki is 251 nM.

The subject of a further series is Aorta rings. In words: Ca2+ antagonism on isolated rat aorta rings, contractions induced by 40 mM K+. The series is classed as cell-based. As to conditions: 37 °C, phasic part, read-out: AORTA/K+ pIC50 phasic (converted). As to the method: as §1, with “The method used was updated from M Spedding (Nauyn-Schmiedeberg's Arch. Pharmacol., 318, 234-240, 1982) and can be summarized as follows: Aorta rings from male rats were prepared and maintained in oxygenated Krebs solution at 37° C.” left out
Take `CCCCCCCCN(C)CCCC(C#N)(c1ccc(OC)c(OC)c1)C(C)C` (stereo not drawn) [Compound #1, 5-[(n-octyl)methylamino]-2-(3,4-dimethoxyphenyl) -2-isopropyl-valeronitrile]: the IC50 is 200 nM.

In the case of `COc1ccc(C(C#N)(CCCN(C)CCCCc2ccccc2)C(C)C)cc1OC` (stereo not drawn) [Compound #2, 5-[(4-phenylbutyl)methylamino]-2-(3,4-dimethoxyphenyl)-2-isopropylvaleronitrile], the IC50 was 63.1 nM.

The same series, now with this note: 37 °C, tonic part, read-out: AORTA/K+ pIC50 tonic (converted).
For the molecule `CCCCCCCCN(C)CCCC(C#N)(c1ccc(OC)c(OC)c1)C(C)C` (stereo not drawn) [Compound #1, 5-[(n-octyl)methylamino]-2-(3,4-dimethoxyphenyl) -2-isopropyl-valeronitrile], the IC50 was 200 nM.

On to `COc1ccc(C(C#N)(CCCN(C)CCCCc2ccccc2)C(C)C)cc1OC` (stereo not drawn) [Compound #2, 5-[(4-phenylbutyl)methylamino]-2-(3,4-dimethoxyphenyl)-2-isopropylvaleronitrile], for which the IC50 is 100 nM.

The same series, now with this note: in words.
Take `CCCCCCCCN(C)CCCC(C#N)(c1ccc(OC)c(OC)c1)C(C)C` (stereo not drawn) [Compound #1, 5-[(n-octyl)methylamino]-2-(3,4-dimethoxyphenyl) -2-isopropyl-valeronitrile]: the “inhibition of phasic and tonic phases of the contractions” value is on record as “similarly inhibited”.

Take `COc1ccc(C(C#N)(CCCN(C)CCCCc2ccccc2)C(C)C)cc1OC` (stereo not drawn) [Compound #2, 5-[(4-phenylbutyl)methylamino]-2-(3,4-dimethoxyphenyl)-2-isopropylvaleronitrile]: the “inhibition of phasic and tonic phases of the contractions” value was “similarly inhibited”.

Still in this series, the particulars now being: read-out: Concentration inhibiting the contractions by 50%.
For `CCCCCCCCN(C)CCCC(C#N)(c1ccc(OC)c(OC)c1)C(C)C` (stereo not drawn) [Compound #1, 5-[(n-octyl)methylamino]-2-(3,4-dimethoxyphenyl) -2-isopropyl-valeronitrile], the IC50 is 200 nM.

As to `COc1ccc(C(C#N)(CCCN(C)CCCCc2ccccc2)C(C)C)cc1OC` (stereo not drawn) [Compound #2, 5-[(4-phenylbutyl)methylamino]-2-(3,4-dimethoxyphenyl)-2-isopropylvaleronitrile], the IC50 came out at 60 nM.

The next series has as its system femoral arterial circulation. The series is described as follows: Vasodilation in perfused hindlimb of anaesthetized dog. The series is classed as in vivo. As to conditions: 30 mcg/kg injected into perfused femoral artery, vs papaverine. As for the experimental part:
The peripheral vasodilator activity of compounds of the invention was measured in anaesthetized dog at the femoral arterial circulation. For this procedure, the femoral artery (the collaterals of which were ligated) was perfused with a constant flow rate of blood taken from aorta. The perfusion pressure measured at the femoral artery varied as a function of the resistance of the perfused area. The test compounds in diluted solvents were directly injected in the system at a dose of 30 mcg/kg. With the blood circulation rate being maintained constant, vasodilation was thus measured by a decrease of the perfusion pressure, in comparison with the action of papaverine considered as standard. The vasodilator activity was rated as follows:
+: 1/3 of the papaverine activity.
++: 2/3 of the papaverine activity.
+++: activity equal to that of papaverine (i.e. 30 to 40 mm Hg).
++++: activity higher than that of papaverine.
In the case of `CCCCCCCCN(C)CCCC(C#N)(c1ccc(OC)c(OC)c1)C(C)C` (stereo not drawn) [Compound #1, 5-[(n-octyl)methylamino]-2-(3,4-dimethoxyphenyl) -2-isopropyl-valeronitrile], the VASODILATION score entry is “++++”.

For the molecule `COc1ccc(C(C#N)(CCCN(C)CCCCc2ccccc2)C(C)C)cc1OC` (stereo not drawn) [Compound #2, 5-[(4-phenylbutyl)methylamino]-2-(3,4-dimethoxyphenyl)-2-isopropylvaleronitrile], the VASODILATION score result is on record as “++++”.

For the molecule `COc1ccc(C(C#N)(CCCN(C)CCCCCc2ccccc2)C(C)C)cc1OC` (stereo not drawn) [compound 3, 5-[5-(phenylpentyl)methylamino]-2-(3,4-dimethoxyphenyl)-2-isopropylvaleronitrile], the VASODILATION score entry is given as “+++ (activity equal to that of papaverine (i.e. 30 to 40 mm Hg).)”.

Still in this series, the particulars now being: 30 mcg/kg, in words.
On to `CCCCCCCCN(C)CCCC(C#N)(c1ccc(OC)c(OC)c1)C(C)C` (stereo not drawn) [Compound #1, 5-[(n-octyl)methylamino]-2-(3,4-dimethoxyphenyl) -2-isopropyl-valeronitrile], for which the “vasodilator activity compared with papaverine” value is “more active than papaverine”.

As for `COc1ccc(C(C#N)(CCCN(C)CCCCc2ccccc2)C(C)C)cc1OC` (stereo not drawn) [Compound #2, 5-[(4-phenylbutyl)methylamino]-2-(3,4-dimethoxyphenyl)-2-isopropylvaleronitrile], the “vasodilator activity compared with papaverine” value is given as “more active than papaverine”.

The subject of another series is spontaneously hypertensive rats. The series is described as follows: Antihypertensive activity in spontaneously hypertensive rats (SHR). The series is classed as in vivo, rat. As to conditions: 60 mg/kg oral, systolic pressure up to 3 hours. As to the method:
The biological activity of the compounds of the invention was evaluated in vivo on spontaneous hypertensive rats. In this test, antihypertensive activity was tested by oral administration to non-anaesthetized, spontaneously hypertensive rats, on which the systolic arterial pressure was measured at the median coccygeal artery by means of a plethysmographic method [J. Roba, G. Lambelin, A. F. De Schaepdryver, Arch. Int. Pharmacodyn., 200, 182 (1972)]. The arterial pressure was measured every 30 minutes from two hours before to three hours after oral administration of 60 mg/kg of the test compounds or of a placebo (1% tragacanth gum mucilage). Only rats having a systolic pressure of 180 to 220 mmHg were used. Each compound was tested in two rats.
The antihypertensive effects were rated as follows:
+: reduction of 10 to 20 mm Hg.
++: reduction of 20 to 30 mm Hg.
+++: reduction of 30 to 40 mm Hg.
++++: reduction >40 mm Hg.
Turning to `CCCCCCCCN(C)CCCC(C#N)(c1ccc(OC)c(OC)c1)C(C)C` (stereo not drawn) [Compound #1, 5-[(n-octyl)methylamino]-2-(3,4-dimethoxyphenyl) -2-isopropyl-valeronitrile], the SHR score entry is listed as “++++ (reduction >40 mm Hg.)”.

As to `COc1ccc(C(C#N)(CCCN(C)CCCCc2ccccc2)C(C)C)cc1OC` (stereo not drawn) [Compound #2, 5-[(4-phenylbutyl)methylamino]-2-(3,4-dimethoxyphenyl)-2-isopropylvaleronitrile], the SHR score result is recorded as “++++ (reduction >40 mm Hg.)”.

The series is the same for the next values; noted with them: SHR, 60 mg/kg oral.
In the case of `CCCCCCCCN(C)CCCC(C#N)(c1ccc(OC)c(OC)c1)C(C)C` (stereo not drawn) [Compound #1, 5-[(n-octyl)methylamino]-2-(3,4-dimethoxyphenyl) -2-isopropyl-valeronitrile], the “lowering of the systolic blood pressure” value is “more than 40 mm Hg”.

For the molecule `COc1ccc(C(C#N)(CCCN(C)CCCCc2ccccc2)C(C)C)cc1OC` (stereo not drawn) [Compound #2, 5-[(4-phenylbutyl)methylamino]-2-(3,4-dimethoxyphenyl)-2-isopropylvaleronitrile], the “lowering of the systolic blood pressure” value is listed as “more than 40 mm Hg”.

The next series addresses T2, 5HT2 receptor (Rattus norvegicus, UniProt P14842).
T2 construct: frontal cortex preparations of rat; from tissue; host or cells: rat frontal cortex
The series is described as follows: 5HT2 receptor binding, 3H-ketanserin, rat frontal cortex.
Details: not given
As to the method: as §2, §3
For the molecule `CCCCCCCCN(C)CCCC(C#N)(c1ccc(OC)c(OC)c1)C(C)C` (stereo not drawn) [Compound #1, 5-[(n-octyl)methylamino]-2-(3,4-dimethoxyphenyl) -2-isopropyl-valeronitrile], the Ki was 100 nM.

`COc1ccc(C(C#N)(CCCN(C)CCCCc2ccccc2)C(C)C)cc1OC` (stereo not drawn) [Compound #2, 5-[(4-phenylbutyl)methylamino]-2-(3,4-dimethoxyphenyl)-2-isopropylvaleronitrile]: the Ki was 100 nM.

`COc1ccc(C(C#N)(CCCN(C)CCCCCc2ccccc2)C(C)C)cc1OC` (stereo not drawn) [compound 3, 5-[5-(phenylpentyl)methylamino]-2-(3,4-dimethoxyphenyl)-2-isopropylvaleronitrile] gave a Ki of 10 nM.

The molecule `COc1ccc(C(C#N)(CCCN(C)CCCc2ccccc2)C(C)C)cc1OC` (stereo not drawn) [compound 4] showed a Ki of 31.6 nM.

A further series relates to α1 -adrenergic receptor. In words: α1-adrenergic receptor binding, 3H-WB4101, rat forebrain. As to conditions: 3H-WB4101, rat forebrain; in words. As for the experimental part: as §2, §3
In the case of `COc1ccc(C(C#N)(CCCN(C)CCCCc2ccccc2)C(C)C)cc1OC` (stereo not drawn) [Compound #2, 5-[(4-phenylbutyl)methylamino]-2-(3,4-dimethoxyphenyl)-2-isopropylvaleronitrile], the “affinity for the α1 -adrenergic receptor” value is “display affinity for the α1 -adrenergic receptor”.

Staying with this series, now noted: rat forebrain, 3H-WB-4101 1.6 nM, pH 7.4, 25 °C, 15 min; values marked (2) are estimated.
As for `CCCCCCCCN(C)CCCC(C#N)(c1ccc(OC)c(OC)c1)C(C)C` (stereo not drawn) [Compound #1, 5-[(n-octyl)methylamino]-2-(3,4-dimethoxyphenyl) -2-isopropyl-valeronitrile], the “α1 pKi” value is given as ≤ 6.

As for `COc1ccc(C(C#N)(CCCN(C)CCCCc2ccccc2)C(C)C)cc1OC` (stereo not drawn) [Compound #2, 5-[(4-phenylbutyl)methylamino]-2-(3,4-dimethoxyphenyl)-2-isopropylvaleronitrile], the “α1 pKi” value was 7.

Turning to `COc1ccc(C(C#N)(CCCN(C)CCCCCc2ccccc2)C(C)C)cc1OC` (stereo not drawn) [compound 3, 5-[5-(phenylpentyl)methylamino]-2-(3,4-dimethoxyphenyl)-2-isopropylvaleronitrile], the “α1 pKi” value is given as ≤ 6.

Regarding `COc1ccc(C(C#N)(CCCN(C)CCCc2ccccc2)C(C)C)cc1OC` (stereo not drawn) [compound 4], the “α1 pKi” value is listed as ≤ 6.

Test system in another series: not listed separately
In words: Acute oral toxicity in mice. The following applies: mouse, in vivo, male mice, mortality over 15 days. As to the method: Compounds #1, #2 , #3, #4 and #7 were tested for acute toxicity. The acute toxicity was determined after oral administration of the test compound to mice. Compound to be tested was suspended in a 1% tragacanth gum mucilage and was administered by means of an intragastric tube to a group of three male mice per dose. The mortailty was recorded over a period of 15 days.
`CCCCCCCCN(C)CCCC(C#N)(c1ccc(OC)c(OC)c1)C(C)C` (stereo not drawn) [Compound #1, 5-[(n-octyl)methylamino]-2-(3,4-dimethoxyphenyl) -2-isopropyl-valeronitrile]: the LD50 at 360 h was > 300 mg/kg.

In the case of `COc1ccc(C(C#N)(CCCN(C)CCCCc2ccccc2)C(C)C)cc1OC` (stereo not drawn) [Compound #2, 5-[(4-phenylbutyl)methylamino]-2-(3,4-dimethoxyphenyl)-2-isopropylvaleronitrile], the median lethal dose (LD50) at 360 h worked out at 350 mg/kg.

The molecule `COc1ccc(C(C#N)(CCCN(C)CCCCCc2ccccc2)C(C)C)cc1OC` (stereo not drawn) [compound 3, 5-[5-(phenylpentyl)methylamino]-2-(3,4-dimethoxyphenyl)-2-isopropylvaleronitrile] registered an LD50 at 360 h of 470 mg/kg.

`COc1ccc(C(C#N)(CCCN(C)CCCc2ccccc2)C(C)C)cc1OC` (stereo not drawn) [compound 4] gave an LD50 at 360 h of 540 mg/kg.
